Patent publication US11819483B2, “Combination therapy to treat urea cycle disorders” (Baylor College of Medicine, priority 2017, dated 2023)
Where two headings read alike, the source gives them in different places. Marks after values point to notes of the source that are not given here.

Tests used:
clinical = conditions: human, in vivo
[1] = Urinary excretion of phenylbutyrate, benzoate and their conjugated products; nitrogen conjugation in 24 h urine; conditions: for Total N excreted as conjugated products, % test meal: fraction of nitrogen content of test meal; for efficacy of conjugation (percent of dose recovered as conjugate in 24 h urine): given as sole treatments, highest dose; for Conjugation efficacy: nitrogen conjugated divided by amount of drug provided
Description: (§1) This was a randomized, three-arm, crossover study. Each arm was completed over a four-day period with a washout period of at least 7 days between any two of the treatment arms (FIG. 1). […] The treatments were designed to provide isomolar amount of drugs and the total daily dose was administered in three equally divided doses.
(§2) On day 1 of study arm 1, detailed medical history review and physical examination were performed. Complete blood count, comprehensive metabolic panel, plasma ammonia, and urinalysis (safety laboratory measurements) were performed. Urine pregnancy test was performed on all females. Meals prepared at the CNRC to provide 0.8 g·kg^−1·day^−1 protein and 32 kcal·kg^−1·day^−1 were given for next three days. The standardized protein and caloric intake allowed for comparison of nitrogen excretion among the three arms. Subjects were randomized to a predetermined treatment sequence and the first dose of the appropriate medication was administered under supervision. Subjects took the study medication with meals for three days (08:00 breakfast; 13:00 lunch; 19:00 dinner) (FIG. 1). […] On day 3, subjects omitted the 19:00 dose of the medication to prevent interference with the analysis on day 4 from metabolite conjugates from the previous day. On day 4, fasting blood sample was obtained for the determination of plasma amino acids and urea concentrations, background isotopic enrichments, basic metabolic profile, complete blood count, and plasma concentrations of phenylbutyrate, benzoate, PAGN, and HA. Urine was collected for measurements of urea, phenylbutyrate, benzoate, PAGN, and HA. At 0 hours, the test meal containing half of the daily dietary allowance of protein (0.4 g·kg^−1) was provided by a commercial liquid meal replacement (Ensure Plus, Abbott, Abbot Park, Ill.) and ^15N labeled spirulina (40 mg·kg^−1; ISOTEC, Miamisburg, Ohio). […] A dose of 40 mg·kg^−1 labeled ^15N-labeled spirulina was estimated to result in dietary enrichment of ˜5 mole percent excess. The morning meal, which was ingested in ˜10 minutes, was followed by a dose of study medication and an intravenous bolus dose of urea tracer, [^13C^18O]urea (6 mmol/subject; ISOTEC, Miamisburg, Ohio). Blood samples to determine concentrations and isotopic enrichments of the drugs and their conjugated products, as well as amino acids and urea were collected every 30 minutes for the first four hours and then hourly between hours 4 and 8 (FIG. 1). Urine was collected in four 2-hour batched periods during the eight hour admission period. […] The procedures for the study arms 2 and 3 were identical to those performed in arm 1.
(§3) Plasma and urinary drugs and their conjugated products as well as urea and amino acids were determined by mass spectrometry and quantitated based on the dilution of labeled internal standards. Total urinary nitrogen was determined using the micro-Kjeldahl method.
Plasma and urinary phenylbutyrate, PAA, and benzoate were determined as their pentafluorobenzyl derivatives by NCI-GC-MS; . [^2H5] […] 4-phenylbutyric acids (C/D/N Isotopes, Quebec, Canada) were used as internal standards. Underivatized PAGN and HA were measured by HESI LC-MS/MS; [^2H5] PAGN and [^2H5] HA (C/D/N Isotopes, Quebec, Canada) were used as internal standards.
Accordingly, these background values were subtracted from the values obtained during the treatment with phenylbutyrate and benzoate. The total amount of nitrogen conjugated was expressed as fraction of the test meal, by dividing by the total nitrogen content of the test meal. The conjugation of dietary nitrogen was calculated as the amount of ^15N conjugated by multiplying the total amount of nitrogen conjugated by the respective ^15N enrichment. For PAGN, the labeling of the amino and amido group were considered.

[2] = Urea metabolism and total urinary nitrogen excretion; format: in vivo, human; design: Urinary urea-^15N: unit not given here; conditions: for Urinary N: N intake 9.81 g/d; for Urea production: [^13C^18O]urea tracer, day 4; for ^15N as % of test meal: urinary urea ^15N
Description: as §1, §2, §3
Plasma amino acids concentrations and enrichments were determined by HESI LC-MS/MS. A cell free U-[^13C^15N] amino acid mix was used as internal standard. Total urinary nitrogen was determined using the micro-Kjeldahl method.

[3] = day 4
[4] = plasma
[5] = 24 h urine, ^15N labeled test meal
[6] = 24 h urine, background subtracted

Compound	urinary excretion of unconjugated drug ([1]; 24 h urine)	Total 15N in conjugated products, % test meal [1, 5] [% test meal]	Total N excreted as conjugated products, % test meal ([1]; 24 h urine)	efficacy of conjugation (percent of dose recovered as conjugate in 24 h urine) [1] [%]	Conjugation efficacy ([1]; gram basis)	Conjugation efficacy ([1]; molar basis)	% N excreted from daily intake ([2]; 24 h urine) [%]	Urea N as a % total urinary N ([2]; 24 h urine) [%]	Urinary Urea N ([2]; 24 h urine) [g/day]	Urinary N ([2]; 24 h urine) [g/day]	Urea production [2] [µmol/kg/h]	^15N as % of test meal ([2]; 24 h urine) [%]	further results
O=C(O)CNC(=O)c1ccccc1 [hippuric acid]													Tmax (clinical): 2.2 h
O=C(O)Cc1ccccc1 [PAA, phenylacetate]	negligible												
O=C([O-])c1ccccc1.[Na+] [NaBz, sodium benzoate]	negligible	1.51	4.65 ^b % test meal	~65	64.2^b mg N/g drug	9.25^b mg N/mmol drug	65.1	65.1	4.20	6.38	197	14.7	Urinary excretion of Bz ([1]; 24 h urine): 6.5 μmol/24 h; Urinary excretion of Bz, % of dose ([1]; 24 h urine): 0.02 % of dose; Urinary HA (Conjugated ^15N Products) [1, 5]: 253.9 μmol/24 h; Urinary excretion of HA [1, 6]: 16.4 mmol/24 h; Urinary excretion of HA, % of dose ([1]; 24 h urine, percent of benzoate dose recovered as HA): 66.1 % of dose; Bz AUC0-8 ([3]; plasma benzoate, 0 to 8 h): 301.7 µmol/L; Bz Tmax ([3]; plasma benzoate): 1.6^b h; Bz Tmax ([3]; plasma benzoate, listed as benzoate): ~1.5 h; Benzoate Cmax and AUC0-8, NaBz arm relative to MIX arm ([3]; plasma): 4-5 times; Cmax ([3]; read-out: Bz Cmax, plasma benzoate): 217 µM
sodium phenylbutyrate [NaPB]	negligible	1.62	8.74 ^a % test meal	~65	92.5^ab mg N/g drug	17.2^a mg N/mmol drug	65.6	63.6	4.16	6.47	192	15.2	Total N excreted as conjugated products ([1]; 24 h urine): 30.7 mmol/24 h; Urinary excretion of PAA ([1]; 24 h urine): 40.3 μmol/24 h; Urinary excretion of PAA, % of dose ([1]; 24 h urine): 0.16 % of dose; Urinary excretion of PB ([1]; 24 h urine): 32.3 μmol/24 h; Urinary excretion of PB, % of dose ([1]; 24 h urine): 0.13 % of dose; Urinary 2&5-[^15N] PAGN [1, 5]: 38.9 μmol/24 h; Urinary 2-[^15N] PAGN [1, 5]: 43.9 μmol/24 h; Urinary excretion of PAGN [1, 6]: 15.3 mmol/24 h; Urinary excretion of PAGN, % of dose ([1]; 24 h urine, percent of phenylbutyrate dose recovered as PAGN): 61.5 % of dose; Urinary urea-^15N [2, 5]: 37.0; leucine AUC0-8 ([4]; response to phenylbutyrate inclusion in the treatment, P=0.032): reduction; tryptophan AUC0-8 ([4]; response to phenylbutyrate, P<0.001): reduction
